PMC9862096, “Interaction of a Homologous Series of Amphiphiles with P-glycoprotein in a Membrane Environment—Contributions of Polar and Non-Polar Interactions” (Pharmaceutics, 2023)

Tests used:
mP–gp = target: T1, mP–gp (Mus musculus, UniProt P21447); assay: Photolabeling of P–gp with [125I]-IAAP / IAAP displacement; type: binding; details: for Ki: Equation (S2), total concentrations, native membranes 1.0 mg/mL, read-out: dissociation constant, competitive inhibition of IAAP binding
T1 construct: made in house; host or cells: High-Five insect cells (Invitrogen), recombinant baculovirus; total membrane vesicles
T1 sequence (P21447 whole entry): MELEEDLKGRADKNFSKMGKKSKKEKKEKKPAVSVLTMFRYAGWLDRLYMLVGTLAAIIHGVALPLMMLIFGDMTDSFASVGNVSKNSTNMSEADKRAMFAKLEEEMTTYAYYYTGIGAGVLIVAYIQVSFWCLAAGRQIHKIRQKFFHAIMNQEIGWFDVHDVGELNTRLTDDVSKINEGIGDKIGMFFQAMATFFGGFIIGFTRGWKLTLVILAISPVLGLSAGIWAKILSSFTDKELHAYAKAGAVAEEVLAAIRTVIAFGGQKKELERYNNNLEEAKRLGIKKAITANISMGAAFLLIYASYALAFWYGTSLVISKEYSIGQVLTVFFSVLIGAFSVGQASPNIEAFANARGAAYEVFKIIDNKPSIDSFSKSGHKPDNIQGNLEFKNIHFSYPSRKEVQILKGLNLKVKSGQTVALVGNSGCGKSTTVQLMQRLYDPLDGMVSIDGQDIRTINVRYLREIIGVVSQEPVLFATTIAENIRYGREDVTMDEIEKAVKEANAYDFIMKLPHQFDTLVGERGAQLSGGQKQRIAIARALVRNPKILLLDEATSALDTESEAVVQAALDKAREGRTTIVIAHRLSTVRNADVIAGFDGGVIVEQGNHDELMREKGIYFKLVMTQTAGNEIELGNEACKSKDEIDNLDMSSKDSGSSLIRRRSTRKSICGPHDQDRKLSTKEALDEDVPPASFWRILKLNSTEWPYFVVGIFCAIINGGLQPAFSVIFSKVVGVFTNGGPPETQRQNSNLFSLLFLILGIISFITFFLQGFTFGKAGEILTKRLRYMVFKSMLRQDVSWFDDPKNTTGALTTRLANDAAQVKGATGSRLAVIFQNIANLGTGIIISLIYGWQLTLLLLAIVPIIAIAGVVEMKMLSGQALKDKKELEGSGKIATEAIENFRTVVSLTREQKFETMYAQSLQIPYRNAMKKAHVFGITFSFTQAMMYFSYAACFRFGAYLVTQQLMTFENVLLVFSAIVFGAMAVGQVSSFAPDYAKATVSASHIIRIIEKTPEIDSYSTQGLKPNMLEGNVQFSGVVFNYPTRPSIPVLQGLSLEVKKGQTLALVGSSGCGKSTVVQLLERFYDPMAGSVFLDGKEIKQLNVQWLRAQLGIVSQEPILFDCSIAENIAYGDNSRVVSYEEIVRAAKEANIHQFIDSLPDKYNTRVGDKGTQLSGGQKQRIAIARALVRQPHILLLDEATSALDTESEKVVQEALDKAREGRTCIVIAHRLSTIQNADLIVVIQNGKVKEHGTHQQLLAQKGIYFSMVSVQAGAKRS
Description: The native membranes of High-Five insect cells expressing mP–gp (1.0 mg/mL) were incubated at room temperature with the indicated concentrations of the inhibitor for 5 min. IAAP (5 to 7 nM) was later added, and the reaction mixture was further incubated for 5 min under subdued light. The samples were photocross-linked with 366 nm UV light for 10 min at room temperature, followed by electrophoresis and quantification, as described previously. The raw data are shown in the Supplementary Information (Figure S4). The results were first analyzed with the usual equation, considering the total concentration of IAAP and NBD amphiphile, as well as competitive inhibition of IAAP binding, see Supplementary Information (Equation (S2)). The dissociation constant considered for IAAP was taken from the literature, 412 nM [15]. The results were also analyzed with a formalism derived in this manuscript considering the distribution of the NBD amphiphile in the distinct environments (aqueous phase, lipid bilayer, and P–gp), the distribution of IAAP between the aqueous media and P–gp, and several equal and independent binding sites in P–gp’s binding pocket, Equation (10).
In this assay, in addition to the binding of the NBD amphiphiles to P–gp binding pocket, it is also necessary to consider the binding of IAAP. The concentration of IAAP used in the assay (5 nM) is several orders of magnitude smaller than that of the amphiphiles in study, and it is also smaller than the total concentration of P–gp (59 nM). Therefore, Equation (8) may be used to calculate the concentration of free ligand and protein. The fraction of IAAP bound to P–gp may then be calculated from Equation (10), where P^* is the concentration of P–gp available for IAAP binding. (10) IP/IT=−b−b^2−4ac/2aa=1; b=−1+KdIAAP/IT+P^*/IT; c=P^*/IT
The number of binding sites in P–gp binding pocket was varied from 1 to 5, and three situations were considered in the analysis: (i) full inhibition of IAAP binding when at least one NBD amphiphile is in the P–gp binding pocket ( i≥1 ), corresponding to P^*=P; (ii) inhibition of IAAP binding only when P–gp is fully saturated ( i=n ), corresponding to P^*=P+∑i=1n−1PLi; and (iii) an intermediate situation with IAAP displacement for i≥n−1 , corresponding to P^*=P+∑i=1n−2PLi .
The displacement of IAAP from P–gp binding pocket was calculated from Equation (11), where IP0 is the concentration of IAAP bound to P–gp in the absence of the NBD amphiphiles. (11) IAAP displacement %=100IP0−IP/IP0

[1] = Association (partition) of the NBD amphiphiles with native membranes, NBD fluorescence; type: physicochemical, High-Five insect cells; details: for LogKP, association with the native membranes: 37 °C, simplified ATPase assay buffer; for KPW→M: aqueous phase to native membrane
Description: The membranes were diluted to the chosen concentration with simplified ATPase assay buffer and warmed to 37 °C. The NBD amphiphiles were added from stocks in DMSO (final DMSO 1% v/v) by squirting the required volume into the membrane solution under gentle vortex. Fluorescence intensity was measured after 15 to 30 min incubation at 37 °C using a Cary Eclipse spectrofluorimeter (Varian, Singapore). The path length of the sample container was selected to guarantee that scattering at the excitation wavelength was smaller than 0.1 while maintaining a good signal/noise ratio (3, 5, or 10 mm).
The increase in fluorescence of the NBD amphiphiles when associated with the model membranes was well described by a simple partition (Equation (S3)). The low affinity of the less lipophilic amphiphiles for the native membranes required the use of high membrane concentrations, and the fluorescence was measured with the plate reader SpectraMax iD5 (Molecular Devices, Berkshire, UK), where the reading setup is not very sensitive to scatter. To guarantee that the high scatter intensity was not leading to artifacts in the measured fluorescence intensity of NBD–C4, titrations of NBD-C6 and NBD–C8 were also performed in the same plate. For these two latter amphiphiles, the results obtained for the partition coefficient were similar to those obtained for experiments with low scatter intensity. A small decrease in the fluorescence intensity from NBD–C8 was nevertheless observed at very high scatter intensities (OD ≥ 0.5), which was used to correct the signal from the less lipophilic amphiphiles, see Supplementary Information (Figure S5 and Equation (S4)). The molar volume considered for the lipid was 0.8 dm^3/mol, and 1.2 g/mL was considered for the density of the membrane proteins.
S3 – Partition of the NBD amphiphiles to lipid bilayers and native membranes The fluorescence increase that accompanies the association of the NBD amphiphiles with the model membra nes was well defined by a simple partition, equation S3. […]
where IfW and If M are respec ti vel y the fluorescence intensity when all fluorescent amphiphile is in the aqueous phase and ass oci ated with the membranes, LbK is the partition co eff icient P between the aqueous and the lipid bilayer, V is the molar vo l u m e of the lipid when in the lipid L bi l ayer, and [L] is the lipid concentration.
To characterize the association of the NBD amphiphiles with the native membranes the whole membrane vo lume was considere d, including the lipid bilayer and the membrane proteins. For the ca se of the less lipophilic amphiphiles NBD‐C4 and NBD‐C6, a sig nif ica nt scatter from the […]
both to the larger size of the vesicles (ca 1 µm diameter, [1]) and to the high refractive index of the native membranes. The magnitude of the scatter effect was quantified through the best fit […]
partition to the membranes at co n ce ntrations where scatter is not significant. The modified […]
where s is the scatter correction factor for a given concentration of native membranes, If W and IfM are respectively the fluorescence intensity when all fluorescent amphiphile is in the aqueous phase and associated with the membranes, WMK → is the partition coefficient between the P aqueous phase and the native membrane, V is the molar volume of the lipid when in the L membrane and [L] the molar concentration of the membrane lipids, V is the vo lume occupied P by 1 g of membrane protein (assuming a density of 1.2 g/mL) and [P] is the protein concentration in units of ma ss per volume.
Typical results obtained for the variation of the fluorescence intensity at 540 nm of the NBD‐Cn fluorophores equilibrated with increasing concentrations of native membranes, are shown in figure S3. The fluorescence intensity was measured in black 96 well plates with the plate reader […]
SpectraMax iD5. The NBD‐Cn concentrations we re 0.5 µM for NBD‐C8 , 1 µM for NBD‐C6, and 2 µM for NBD‐C4, and the total volume per well was 150 µL. […]

[2] = cited from earlier work
[3] = cited from earlier work; for critical aggregation concentration (CAC): 25 °C, aqueous; for increase of CAC in the presence of co-solvent: e.g. 1 M trehalose
[4] = membrane volume = phospholipid bilayer and P–gp (binding to the protein P–gp only)
[5] = membrane volume = phospholipid bilayer and all proteins (binding to all membrane proteins with equal affinity)

Structure (SMILES) | Ki (mP–gp) | number of binding sites n giving agreement between the two estimates of the partition coefficient (mP–gp; re-analysis of IAAP displacement, IAAP displaced for i ≥ n−1) | LogKP, association with the native membranes [1] | KPW→M [1, 4] | KPW→M [1, 5] | LogKP, association with POPC bilayers [2] | critical aggregation concentration (CAC) [3] | increase of CAC in the presence of co-solvent [3] | LogKP, partition coefficient for POPC bilayers [2]
CCCCNc1ccc([N+](=O)[O-])c2nonc12 [NBD–C4] | 14 µM | 5 | 2.75 ± 0.20 | 1.4 × 10^3 | 5.7 × 10^2 | 2.99 | 250 µM | not significantly affected | –
CCCCCCCCCCCCCC(=O)OCC(O)COP(=O)(O)OCCNc1ccc([N+](=O)[O-])c2nonc12 (stereo not shown) [NBD–LysoMPE] | 23 µM | – | 4.34 ± 0.25 | – | – | – | 4 µM | – | 4.2
CCCCCCCCNc1ccc([N+](=O)[O-])c2nonc12 [NBD–C8] | 4 µM | – | 3.95 ± 0.14 | 2.2 × 10^4 | 9.0 × 10^3 | 4.67 | 1 µM | 4 fold | –
